# From US8410138B2, “Compounds for activating TGF-beta signaling” (The Board of Trustees of the Leland Stanford Junior …, priority 2007, dated 2013)
# Like-named read-outs stand apart in the source and are kept apart here.
# Experiments:
# [1] = tested on: TGF-β signaling (SBE-luc reporter) in brain; test: Bioluminescence and tissue luciferase in SBE-luc reporter mice; type: in vivo, mouse; conditions: i.p. or s.q. injection; FIG. 3D
# Description: Transgenic mice harboring the SBE-luc reporter gene were generated and used to test the present compositions in vivo. These “reporter mice” mice express SBE-luc (i.e., “the transgene”) in all cells of the body.^1,54 Intraperitoneal injection of luciferin into SBE-luc mice produces bioluminescence generated by luciferase and photons penetrating the skull can be imaged using sensitive camera systems.^1,54
# To determine whether 3A and its analogs are bioactive in vivo and able to penetrate the blood brain barrier (BBB), TGF-β1, 3A, 22B02, or 13A04 were injected into reporter mice i.p. or s.q. The animals were then sacrificed at the indicated times following injection. […] There was no obvious activation of the reporter in other organs.
# Bioactivity data were confirmed by biochemical measurements of tissue luciferase in hippocampal homogenates (FIG. 3E).
# Two-month old SBE-luciferase transgenic mice receive different concentrations of a test compound either s.q., i.p., or orally by gavage. […] Following administration of the test or control compounds, mice are injected with luciferin i.p. At, e.g., 2, 8, and 16 hours following injection of luciferin, the mice are imaged to detect bioluminescence as described above. Brains may be harvested 16 hours following test compound injection, and may be divided sagittally. […]
# [2] = tested on: TGF-β signaling (SBE-SEAP reporter) in MFB-F11 cells; type: cell-based, mouse; conditions: for Relative TGF-β activity, fold change compared with vehicle: cell reporter assay
# Experimental: All compounds were tested twice, in duplicate, using the MFB-F11 cell line. 80 compounds were selected for further study based on induction of the reporter gene in any of the replicates. These compounds were tested again in MFB-F11 or C6-H4 cells, either alone or in the presence of 100 pg/ml of TGF-β1, to test for synergistic activities.
# [3] = tested on: TGF-β signaling in hippocampal neurons; test: RFP immunohistochemistry in SBE-lucRT reporter mice; type: in vivo, mouse
# Description: To study TGF-β signaling at the cellular level, additional reporter mice were generated, which express a fusion protein consisting of luciferase, red fluorescent protein […], and thymidine kinase (TK) under control of the SBE promoter (i.e., SBE-lucRT mice).
# [4] = tested on: primary hippocampal neurons from E16 mouse embryos; type: cell-based; conditions: Aβ oligomers inducing 50-70% cell death; 13A04 3 μM, TGF-β1 10 ng/ml; 24 hours
# Experimental: (§1) FIG. 1H is a graph showing the relative amount of surviving 6-7 DIV hippocampal neurons of E16 mice following exposure to culture medium (CM) alone, 13A04 (3 μM), or CM containing Aβ at 2 or 5 μM with TGF-β1 (10 ng/ml) or 13A04 (3 μM). After 24 hours, cultures were fixed and surviving cells were counted. Data represent mean±SEM, n=3-7 fields counted per plate. All conditions were compared to Aβ using the Mann-Whitney test (* p<0.05, ** p<0.01). FIG. 1I is a graph showing the relative gene expression levels of the indicated TGF-β-responsive genes induced in MFB-F11 fibroblasts stimulated with TGF-β1 (yellow) or 13A04 (blue) for 24 h. mRNA was extracted, labeled and hybridized to gene expression arrays tailored for the TGF-β pathway.
# Moreover, the small-molecule TGF-β agonist was not toxic at 3 μM and 10 μM (not shown).
# Primary mixed neuronal cultures are exposed to Aβ oligomers and treated with compounds (0 to 10 μM concentration) and cell survival is measured using lactate dehydrogenase (LDH) release or by counting 4,6-diamidino-2-phenylindole (DAPI)-stained cells. […] Neuritic dystrophy in 21 DIV neurons can also be measured by quantifying the tortuosity of neurites as described by Ferreira et al.^70 and modified by others. […] Further incubation of these cells with the present compounds provides a sensitive assay for neuroprotection.
# Aβ deposition = test: APP-T41 mice treated for 10 days, Aβ immunostaining; type: in vivo; conditions: 5-month-old APP-T41 mice, i.p. for 10 days
# Experimental: In a further experiment, a group of 5-month-old APP-T41 mice were treated with vehicle or 13A04 (i.p.) for 10 days. At this age, the mice are starting to deposit Aβ which can be quantified in brain sections using Aβ immunostaining.
# Transgenic mice that overproduce FAD-mutant human APP reproduce important aspects of AD, including amyloid plaques, neurodegeneration, and cognitive deficits. APP-T41 mice which overexpress APP751^V717I, K670M/N671L in neurons develop amyloid pathology, neurodegeneration, and cognitive deficits.^43,44 Mice overexpressing human tau protein associated with familial forms of fronto-temporal dementia (a dementia characterized by extensive tangle formation) develop neurofibrillary tangles similar to the ones observed in AD and suffer from locomotor deficits around 10 months of age.^45 APP-T41 and Prp-tau^P301L mice^45 can be used to determine the in vivo efficacy of test compounds in treating AD-like diseases.
# Compounds can also be tested for their ability to reverse cognitive deficits.
# [5] = tested on: TGF-β-responsive genes in MFB-F11 fibroblasts; test: Microarray of TGF-β pathway gene expression in tgfb1−/− fibroblasts; type: cell-based, mouse; conditions: 1, 5, 24 hours
# Experimental: as §1
# A microarray assay was used to identify changes in gene expression caused by stimulating tgfb1^−/− fibroblasts with TGF-β1 or 13A04. mRNA was harvested 1, 5, and 24 hours following stimulation of tgfb1^−/− fibroblasts with TGF-β1 (or control) and analyzed for differential expression of 128 genes related to TGF-β signaling, using a commercially available filter array (Superarray Bioscience Corp.; FIG. 1I). […]
# [6] = tested on: HDAC activity in HeLa nuclear extracts (HDAC 1, HDAC 2, SIRT 1); conditions: FIG. 8B
# Description: A commercially available assay was used to measure HDAC inhibitory activity of the present small-molecule compounds.
# HDAC 1 and 2 = conditions: read-out: 1050 (HDAC 1 and 2 inhibition); cited from earlier work
# [7] = tested on: TGF-β reporter gene in hippocampus; test: Luciferase activity in SBE-luc mouse hippocampus; type: in vivo; conditions: 30 mg/kg i.p.; five hours after injection; SBE-luc mice
# Experimental: In another experiment performed to asses the ability of the present compounds to activate TGF-β signaling in animals, SBE-luc mice were given either PBS or the 11H compound via i.p. injections as described in Example 10. Following drug or PBS injection, mice were anesthetized with chloral hydrate and perfused with saline. Brains were dissected and snap-frozen. Hippocampal tissues were assayed for luciferase activity.
# (§2) SBE-luc mice (T9-7F), 2-4 months of age, 4-5 mice per group, were given either the 11H compound at 30 mg/kg via i.p. injections, or PBS as a control. The 11H compound was completely dissolved in PBS at the concentration of 3 mg/ml. This working solution was given to mice at 10 μl/g body weight to achieve the desired level of 30 mg/kg. Five hours following drug or PBS injection, mice were anesthetized with chloral hydrate and perfused with saline. Brains were dissected and snap-frozen. Hippocampal tissues were homogenized in 100 μl of 1× luciferase assay buffer and 20 μl of the resulting supernatant was used for luciferase assays.
# Dissolution in PBS = type: physicochemical
# Experimental: as §2
# [8] = tested on: fibroblasts lacking Smad2, Smad3 or Smad4; test: SBE reporter signaling in fibroblasts lacking elements of the TGF-β signaling pathway; type: cell-based; conditions: Smad2 (FIG. 2B) or Smad3 knock-out fibroblasts
# Description: To understand how the TGF-β signaling agonists function and identify molecular genetic targets in cells, fibroblasts lacking different elements of the TGF-β3 signaling pathway, including Smad2, Smad3, and Smad4, were used in combination with plasmids encoding different inhibitors of the TGF-β signaling pathway to study TGF-β agonists in different backgrounds. For reference, the canonical TGF-β signaling pathway is illustrated in FIG. 2A. The biological actions of TGF-β1 are mediated through interactions with the type 2 TGF beta receptor (TBR2) 2 and the type I TGF beta receptor (TBRI) 3. Betaglycan 4 may participate in the binding of TGF-β1. Receptor activation leads to the phosphorylation of Smad proteins, such as Smad 2/3 5 and Smad 4 6, which translocate to the nucleus 7 to bind to the Smad DNA-binding element (SBE) 8, present in numerous genes, in combination with transcription factors (TF) 9. Smad 7 10 is inhibitory with respect to Smad 2/3 5 phosphorylation. Alternative signaling involves p38 11 and the MAP kinase pathway. TAB1 12 activates TAK1 13, which activates p38 11.
# Because Smad2 and Smad3 can substitute for each other, results with Smad2 or Smad3 knock-out fibroblasts were more difficult to interpret. Nonetheless, the synergistic effect of TGF-β1 and 11H was blocked in the absence of Smad2 (FIG. 2B) or Smad3 (not shown). In these assays, signaling is reported via SBE elements, which are specific elements that bind Smad proteins. Thus, the 11H compound must signal through this element. Without being limited to theory, it is believed that the 3A compound functions as a competitive agonist of Smad binding to the SBE, representing a novel target and mode of action.
compound,measurement,setting,value
CC(C)CN(CC(=O)N(CCc1c[nH]c2ccccc12)Cc1ccccc1)C(=O)c1ccco1 [Compound 13A04],Reporter activation (bioluminescence) in living mice,[1],dose-dependent manner
same,"Relative TGF-β activity, fold change compared with vehicle",[2]; 3 μM,2.5 fold
same,"Relative TGF-β activity, fold change compared with vehicle",[2]; 10 μM,6.3 fold
same,"Relative TGF-β activity, fold change compared with vehicle",[2]; 30 μM,17.6 fold
same,"Relative TGF-β activity, fold change compared with vehicle",[2]; 100 μM,20.9 fold
same,TGF-β signaling in the vasculature,[3],No activation
same,Reporter gene and TGF-β signaling in hippocampal neurons,[3]; RFP immunohistochemistry,activates the reporter gene and TGF-β signaling in hippocampal neurons
same,Protection of neurons against Aβ toxicity (survival),[4],consistently protected neurons and increased survival
same,Tolerability / side effects,Aβ deposition,well tolerated and no side effects were observed
same,Aβ deposition versus controls,Aβ deposition; not statistically significant,trend towards reduced Aβ deposition
same,"Expression of TGF-β signaling genes (Fos, Jun, Myc, Smad1, Smad2, Smad3, Interleukin-6)",[5],induced
trichostatin A,Reduction of HDAC activity,[6],> 90%
N#Cc1ccc(-c2ccc(OCCCCCCC(=O)NO)cc2)cc1 [Compound A-161906],IC50,HDAC 1 and 2,9 nM
"C/C(=C\c1ccccc1)CN(CC1CCNCC1)C(=O)NC1CCCCC1 [Compound 11H, (E)-3-cyclohexyl-1-(2-methyl-3-phenylallyl)-1-(piperidin-4-ylmethyl)urea]",TGF-β agonist activity,[2]; data of FIGS. 1A-1J,TGF-β-agonists
same,Activation of the TGF-β reporter gene in hippocampi compared to PBS,[7],twice the levels
same,Concentration completely dissolved in PBS,Dissolution in PBS,≥ 3000 µg/mL
same,Synergistic effect with TGF-β1 in the absence of Smad2 or Smad3,[8],blocked
